Reference: patent publication US11377441B2, “Covalent inhibitors of KRAS” (Araxes Pharma LLC, priority 2017, dated 2022)

Each compound was assayed against T1, KRAS G12C 1-169, his-tagged protein, GDP-loaded (Homo sapiens, UniProt P01116, G12C) (assay: Biochemical assay: covalent modification of KRAS G12C measured by mass spectrometry (RapidFire/TOF or Q-Exactive)). Settings: covalent binding to (modification of) KRAS G12C after a ten minute incubation period.
T1 construct: KRAS G12C 1-169, his-tagged protein, GDP-loaded
Format: binding
Summary of the method: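 GDP-loaded KRAS G12C 1-169 (his-tagged) at 2 μM or 0.5 μM in 20 mM Hepes, 150 mM NaCl, 1 mM MgCl2, incubated with compound at 100, 30 or 10 μM at room temperature for 10 min, 30 min, 2 h or 24 h, then quenched with formic acid. Intact-protein LC-MS, deconvolved; percent modification from modified versus unmodified protein.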

Row | SMILES | Binding %
1 | C=CC(=O)N1C[C@H](C)N(c2nc(OC[C@H]3CCCN3C)nc3c(F)c(-c4c(C)ccc5[nH]nc(C6CC6)c45)c(Cl)cc23)C[C@H]1C [Compound 172, 1-((2R,5S)-4-(6-chloro-7-(3-cyclopropyl-5-methyl-1H-indazol-4-yl)-8-fluoro-2-(((R)-1-methylpyrroldiin-2-yl)methoxy)quinazolin-4-yl)-2,5-dimethylpiperazin-1-yl)prop-2-en-1-one] | +++ (+++ indicates binding activity greater than 80%)
2 | C=CC(=O)N1C[C@H](C)N(c2nc(N3CC(N(C)C)C3)nc3c(F)c(-c4c(C)ccc5cnn(C6CC6)c45)c(C(F)(F)F)cc23)C[C@H]1C [Compound 173, 1-((2R,5S)-4-(7-(1-cyclopropyl-6-methyl-1H-indazol-7-yl)-2-(3-(dimethylamino)azetidin-1-yl)-8-fluoro-6-(trifluoromethyl)quina-zolin-4-yl)-2,5-dimethylpiperazin-1-yl)prop-2-en-1-one] | +++ (+++ indicates binding activity greater than 80%)
3 | C=CC(=O)N1C[C@H](C)N(c2nc(OC[C@@H]3CCN(C)C3)nc3c(F)c(-c4c(C)ccc5cnn(C)c45)c(Cl)cc23)C[C@H]1C [Compound 174, 1-((2R,5S)-4-(6-chloro-7-(1,6-dimethyl-1H-indazol-7-yl)-8-fluoro-2-(((R)-1-methylpyrrolidin-3-yl)methoxy)quinazolin-4-yl)-2,5-dimethylpiperazin-1-yl)prop-2-en-1-one] | +++ (+++ indicates binding activity greater than 80%)
4 | C=CC(=O)N1C[C@H](C)N(c2nc(OC[C@@H]3CCN(C)C3)nc3c(F)c(-c4c(C)ccc5[nH]nc(C)c45)c(Cl)cc23)C[C@H]1C [Compound 175, 1-((2R,5S)-4-(6-chloro-7-(3,5-dimethyl-1H-indazol-4-yl)-8-fluoro-2-(((R)-1-methylpyrrolidin-3-yl)methoxy)quinazolin-4-yl)-2,5-dimethylpiperazin-1-yl)prop-2-en-1-one] | ++ (++ indicates binding activity from 50 to 80%)
5 | C=CC(=O)N1C[C@H](C)N(c2nc(OC[C@@H]3CN(C)CCO3)nc3c(F)c(-c4c(C)ccc5cnn(C)c45)c(Cl)cc23)C[C@H]1C [Compound 176, 1-((2R,5S)-4-(6-chloro-7-(1,6-dimethyl-1H-indazol-7-yl)-8-fluoro-2-(((S)-4-methylmorpholin-2-yl)methoxy)quinazolin-4-yl)-2,5-dimethylpiperazin-1-yl)prop-2-en-1-one] | +++ (+++ indicates binding activity greater than 80%)
6 | C=CC(=O)N1C[C@H](C)N(c2nc(OC[C@@H]3CCN(C)C3)nc3c(F)c(-c4c(C)ccc5[nH]nc(C6CC6)c45)c(Cl)cc23)C[C@H]1C [Compound 177, 1-((2R,5S)-4-(6-chloro-7-(3-cyclopropyl-5-methyl-1H-indazol-4-yl)-8-fluoro-2-(((R)-1-methylpyrrolidin-3-yl)methoxy)quinazolin-4-yl)-2,5-dimethylpiperazin-1-yl)prop-2-en-1-one] | +++ (+++ indicates binding activity greater than 80%)
7 | C=CC(=O)N1C[C@H](C)N(c2nc(OC[C@H]3COCCN3C)nc3c(F)c(-c4c(C)ccc5cnn(C)c45)c(Cl)cc23)C[C@H]1C [Compound 178, 1-((2R,5S)-4-(6-chloro-7-(1,6-dimethyl-1H-indazol-7-yl)-8-fluoro-2-(((R)-4-methylmorpholin-3-yl)methoxy)quinazolin-4-yl)-2,5-dimethylpiperazin-1-yl)prop-2-en-1-one] | ++ (++ indicates binding activity from 50 to 80%)
8 | C=CC(=O)N1C[C@H](C)N(c2nc(OC[C@H]3CCCN3C)nc3c(F)c(-c4c(C)ccc5[nH]nc(C)c45)c(Cl)cc23)C[C@H]1C [Compound 179, 1-((2R,5S)-4-(6-chloro-7-(3,5-dimethyl-1H-indazol-4-yl)-8-fluoro-2-(((R)-1-methylpyrrolidin-2-yl)methoxy)quinazolin-4-yl)-2,5-dimethyllpiperazin-1-yl)prop-2-en-1-one] | +++ (+++ indicates binding activity greater than 80%)
9 | C=CC(=O)N1C[C@H](C)N(c2nc(OC[C@H]3COCCN3C)nc3c(F)c(-c4c(C)ccc5[nH]nc(C6CC6)c45)c(Cl)cc23)C[C@H]1C [Compound 180, 1-((2R,5S)-4-(6-chloro-7-(3-cyclopropyl-5-methyl-1H-indazol-4-yl)-8-fluoro-2-(((R)-4-methymorpholin-3-yl)methoxy)quinazolin-4-yl)-2,5-dimethylpiperazin-1-yl)prop-2-en-1-one] | ++ (++ indicates binding activity from 50 to 80%)
10 | C=CC(=O)N1C[C@H](C)N(c2nc(OC[C@H]3COCCN3C)nc3c(F)c(-c4c(C)ccc5[nH]nc(C)c45)c(Cl)cc23)C[C@H]1C [Compound 181, 1-((2R,5S)-4-(6-chloro-7-(3,5-dimethyl-1H-indazol-4-yl)-8-fluoro-2-(((R)-4-methylmorpholin-3-yl)methoxy)quinazolin-4-yl)-2,5-dimethylpiperazin-1-yl)prop-2-en-1-one] | + (+ indicates binding activity greater than 0% and up to 50%)
11 | C=CC(=O)N1C[C@H](C)N(c2nc(OC[C@@H]3COCCN3C)nc3c(F)c(-c4c(C)ccc5cnn(C)c45)c(Cl)cc23)C[C@H]1C [Compound 182, 1-((2R,5S)-4-(6-chloro-7-(1,6-dimethyl-1H-indazol-7-yl)-8-fluoro-2-(((S)-4-methylmorpholin-3-yl)methoxy)quinazolin-4-yl)-2,5-dimethylpiperazin-1-yl)prop-2-en-1-one] | ++ (++ indicates binding activity from 50 to 80%)
12 | C=CC(=O)N1C[C@H](C)N(c2nc(OC[C@@H]3COCCN3C)nc3c(F)c(-c4c(C)ccc5[nH]nc(C6CC6)c45)c(Cl)cc23)C[C@H]1C [Compound 183, 1-((2R,5S)-4-(6-chloro-7-(3-cyclopropyl-5-methyl-1H-indazol-4-yl)-8-fluoro-2-(((S)-4-methylmorpholin-3-yl)methoxy)quinazolin-4-yl)-2,5-dimethylpiperazin-1-yl)prop-2-en-1-one] | +++ (+++ indicates binding activity greater than 80%)
13 | C=CC(=O)N1C[C@H](C)N(c2nc(OC[C@@H]3COCCN3C)nc3c(F)c(-c4c(C)ccc5[nH]nc(C)c45)c(Cl)cc23)C[C@H]1C [Compound 184, 1-((2R,5S)-4-(6-chloro-7-(3,5-dimethyl-1H-indazol-4-yl)-8-fluoro-2-(((S)-4-methylmorpholin-3-yl)methoxy)quinazolin-4-yl)-2,5-dimethylpiperazin-1-yl)prop-2-en-1-one] | +++ (+++ indicates binding activity greater than 80%)
14 | C=CC(=O)N1C[C@H](C)N(c2nc(OC[C@@H]3CCCN3C)nc3c(F)c(-c4c(C)ccc5[nH]nc(C)c45)c(Cl)cc23)C[C@H]1C [Compound 185, 1-((2R,5S)-4-(6-chloro-7-(3,5-dimethyl-1H-indazol-4-yl)-8-fluoro-2-(((S)-1-methylpyrrolidin-2-yl)methoxy)quinazolin-4-yl)-2,5-dimethylpiperazin-1-yl)prop-2-en-1-one] | +++ (+++ indicates binding activity greater than 80%)
15 | C=CC(=O)N1C[C@H](C)N(c2nc(OC[C@H]3CN(C)CCO3)nc3c(F)c(-c4c(C)ccc5cnn(C)c45)c(Cl)cc23)C[C@H]1C [Compound 186, 1-((2R,5S)-4-(6-chloro-7-(1,6-dimethyl-1H-indazol-7-yl)-8-fluoro-2-(((R)-4-methylmorpholin-2-yl)methoxy)quinazolin-4-yl)-2,5-dimethylpiperazin-1-yl)prop-2-en-1-one] | +++ (+++ indicates binding activity greater than 80%)
16 | C=CC(=O)N1C[C@H](C)N(c2nc(OC[C@@H]3CN(C)CCO3)nc3c(F)c(-c4c(C)ccc5[nH]nc(C6CC6)c45)c(Cl)cc23)C[C@H]1C [Compound 187, 1-((2R,5S)-4-(6-chloro-7-(3-cyclopropyl-5-methyl-1H-indazol-4-yl)-8-fluoro-2-(((S)-4-methylmorpholin-2-yl)methoxy)quinazolin-4-yl)-2,5-dimethylpiperazin-1-yl)prop-2-en-1-one] | +++ (+++ indicates binding activity greater than 80%)
17 | C=CC(=O)N1C[C@H](C)N(c2nc(OC[C@@H]3CN(C)CCO3)nc3c(F)c(-c4c(C)ccc5[nH]nc(C)c45)c(Cl)cc23)C[C@H]1C [Compound 188, 1-((2R,5S)-4-(6-chloro-7-(3,5-dimethyl-1H-indazol-4-yl)-8-fluoro-2-(((S)-4-methylmorpholin-2-yl)methoxy)quinazolin-4-yl)-2,5-dimethylpiperazin-1-yl)prop-2-en-1-one] | +++ (+++ indicates binding activity greater than 80%)
18 | C=CC(=O)N1C[C@H](C)N(c2nc(OC[C@H]3CN(C)CCO3)nc3c(F)c(-c4c(C)ccc5[nH]nc(C6CC6)c45)c(Cl)cc23)C[C@H]1C [Compound 189, 1-((2R,5S)-4-(6-chloro-7-(3-cyclopropyl-5-methyl-1H-indazol-4-yl)-8-fluoro-2-(((R)-4-methylmorpholiln-2-yl)methoxy)quinazolin-4-yl)-2,5-dimethylpiperazin-1-yl)prop-2-en-1-one] | +++ (+++ indicates binding activity greater than 80%)
19 | C=CC(=O)N1C[C@H](C)N(c2nc(OC[C@H]3CN(C)CCO3)nc3c(F)c(-c4c(C)ccc5[nH]nc(C)c45)c(Cl)cc23)C[C@H]1C [Compound 190, 1-((2R,5S)-4-(6-chloro-7-(3,5-dimethyl-1H-indazol-4-yl)-8-fluoro-2-(((R)-4-methylmorpholin-2-yl)methoxy)quinazolin-4-yl)-2,5-dimethylpiperazin-1-yl)prop-2-en-1-one] | +++ (+++ indicates binding activity greater than 80%)
20 | C=CS(=O)(=O)N1C[C@H](C)N(c2nc(N3CC(N(C)C)C3)nc3c(F)c(-c4c(C)ccc5cnn(C)c45)c(Cl)cc23)C[C@H]1C [Compound 191, 1-(6-chloro-7-(1,6-dimethyl-1H-indazol-7-yl)-4-((2S,5R)-2,5-dimethyl-4-(vinylsulfonyl)piperazin-1-yl)-8-fluoroquinazolin-2-yl)-N,N-dimethylazetidin-3-amine] | + (+ indicates binding activity greater than 0% and up to 50%)
